The source of these data is patent US7973181B2, “Hydroxamic acid derivatives as inhibitors of HDAC enzymatic activity” (Chroma Therapeutics Ltd., priority 2005, dated 2011).

Experiment [1] addresses histone deacetylase activity (HeLa nuclear extract). Description: HDAC fluorescent activity assay (Biomol Fluor de Lys), HeLa nuclear extract. As to conditions: Fluor de Lys substrate. The experiment is classed as biochemical. As to the method: The ability of compounds to inhibit histone deacetylase activities was measured using the commercially available HDAC fluorescent activity assay from Biomol. In brief, the Fluor de Lys™ substrate, a lysine with an epsilon-amino acetylation, is incubated with the source of histone deacetylase activity (HeLa nuclear extract) in the presence or absence of inhibitor.
Deacetylation of the substrate sensitises the substrate to Fluor de Lys™ developer, which generates a fluorophore. Thus, incubation of the substrate with a source of HDAC activity results in an increase in signal that is diminished in the presence of an HDAC inhibitor.
Data are expressed as a percentage of the control, measured in the absence of inhibitor, with background signal being subtracted from all samples, as follows: — % activity=((S^i−B)/(S^o−B))×100 where S^i is the signal in the presence of substrate, enzyme and inhibitor, S^o is the signal in the presence of substrate, enzyme and the vehicle in which the inhibitor is dissolved, and B is the background signal measured in the absence of enzyme.
(§1) IC50 values were determined by non-linear regression analysis, after fitting the results of eight data points to the equation for sigmoidal dose response with variable slope (% activity against log concentration of compound), using Graphpad Prism software.
Histone deacetylase activity from crude nuclear extract derived from HeLa cells was used for screening. The preparation, purchased from 4C (Seneffe, Belgium), was prepared from HeLa cells harvested whilst in exponential growth phase. The nuclear extract is prepared according to Dignam JD1983 Nucl. Acid. Res. 11, 1475-1489, snap frozen in liquid nitrogen and stored at −80° C. The final buffer composition was 20 mM Hepes, 100 mM KCl, 0.2 mM EDTA, 0.5 mM DTT, 0.2 mM PMSF and 20% (v/v) glycerol.
Results of testing the compounds of the examples in this assay are given in the second column of Table 1 below.

For experiment [2], the system named is U937. Briefly: Cell inhibition assay (SRB cell viability), U937. In kind it is cell-based. The note with it: U937 cells. Here is the method:
(§2) The corresponding cancer cell lines (Hela, U937 and HUT) growing in log phase were harvested and seeded at 1000 cells/well (200 ul final volume) into 96-well tissue culture plates. Following 24 h of cell growth cells were treated with compounds (final concentration of 20 uM). Plates were then re-incubated for a further 72 h before a sulphorhodamine B (SRB) cell viability assay was conducted according to Skehan 1990 J Natl Canc Inst 82, 1107-1112.
(§3) Data were expressed as a percentage inhibition of the control, measured in the absence of inhibitor, as follows: — % inhibition=100−((S^i/S^o)×100) where S^i is the signal in the presence of inhibitor and S^o is the signal in the presence of DMSO.
as §1
(§4) Results of testing the compounds of the examples in this assay are given in the third- fifth columns of Table 1.

The subject of experiment [3] is Hela. Description: Cell inhibition assay (SRB cell viability), Hela. As to conditions: Hela cells, 72 h. In kind it is cell-based. Here is the method: as §2, §3, §1, §4
In experiment [4] the test system is HUT. Description: Cell inhibition assay (SRB cell viability), HUT. The experiment is classed as cell-based. Here is the method:
as §2, §3, §1, §4

Structures are written as SMILES. pIC50: −log10 of the molar value. Some results are limits rather than exact numbers.

Usually pIC50 stands for the negative decadic logarithm of the IC50, by convention in mol/L.

On to `N[C@@H](CCCOc1ccc(CNCc2ccc3cc(C(=O)NO)sc3c2)cc1)C(=O)OC1CCCC1` [Example 17, (S)-2-Amino-5-(4-{[(2-hydroxycarbamoyl-benzo[b]thiophen-6-ylmethyl)-amino]-methyl}-phenoxy)-pentanoic acid cyclopentyl ester], for which the pIC50 in experiment [1] was > 7.00; in experiment [2] (72 h), 5.48 to 6.48; in experiment [3], 5.48 to 6.48; in experiment [4] (HUT cells, 72 h), 5.48 to 6.48.
With `COc1cc(CNCc2ccc3cc(C(=O)NO)sc3c2)ccc1OCCC[C@H](N)C(=O)OC1CCCC1` [Example 19, (S)-2-Amino-5-(4-{[(2-hydroxycarbamoyl-benzo[b]thiophen-6-ylmethyl)-amino]-methyl}-2-methoxyphenoxy)-pentanoic acid cyclopentyl ester], the pIC50 in experiment [1] was > 7.00; in experiment [2] (Homo sapiens, U-937, 72 h), 5.48 to 6.48; in experiment [3] (Homo sapiens, HeLa), 5.48 to 6.48; in experiment [4] (72 h, HUT cells), 5.48 to 6.48.
With `CC(=O)N[C@@H](CCCOc1ccc(CNCc2ccc3cc(C(=O)NO)sc3c2)cc1)C(=O)OC1CCCC1` [Example 21, (S)-2-Acetylamino-5-(4-{[(2-hydroxycarbamoyl-benzo[b]thiophen-6-ylmethyl)-amino]-methyl}-phenoxy)-pentanoic acid cyclopentyl ester], the pIC50 was > 7.00 in experiment [1]; 5.48 to 6.48 in experiment [2] (Homo sapiens, U-937, 72 h); 5.48 to 6.48 in experiment [3] (Homo sapiens, HeLa); > 6.48 in experiment [4] (72 h, HUT cells).
Take `O=C(NO)c1cc2ccc(CNCc3ccc(OCCC[C@H](NC4CCCCC4)C(=O)OC4CCCC4)cc3)cc2s1` [Example 22, (S)-2-Cyclohexylamino-S-(4-{[(2-hydroxycarbamoyl-benzo[b]thiophen-6-ylmethyl)-amino]-methyl}-phenoxy)-pentanoic acid cyclopentyl ester]: the negative logarithm of the IC50 (pIC50) was 6.00 to 7.00 in experiment [1]; 5.48 to 6.48 in experiment [2] (Homo sapiens, U-937, 72 h); 5.48 to 6.48 in experiment [3] (Homo sapiens, HeLa); 5.48 to 6.48 in experiment [4] (72 h, HUT cells).
As for `N[C@H](C(=O)OC1CCCC1)c1ccc(Oc2ccc(CNCc3ccc4cc(C(=O)NO)sc4c3)cc2)cc1` [Example 24, (S)-Amino-[4-(4-{[(2-hydroxycarbamoyl-benzo[b]thiophen-6-ylmethyl)-amino]-methyl}-phenoxy)-phenyl]-acetic acid cyclopentyl ester], the pIC50 was > 7.00 in experiment [1]; > 6.48 in experiment [2] (Homo sapiens, U-937, 72 h); 5.48 to 6.48 in experiment [3] (Homo sapiens, HeLa); > 6.48 in experiment [4] (72 h, HUT cells).
For the compound `N[C@@H](Cc1ccc(Oc2ccc(CNCc3ccc4cc(C(=O)NO)sc4c3)cc2)cc1)C(=O)OC1CCCC1` [Example 26, (S)-2-Amino-3-[4-(4-{[(2-hydroxycarbamoyl-benzo[b]thiophen-6-ylmethyl)-amino]-methyl}-phenoxy)-phenyl]-propionic acid cyclopentyl ester], the pIC50 in experiment [1] was > 7.00; in experiment [2] (Homo sapiens, U-937, 72 h) it was > 6.48; in experiment [3] (Homo sapiens, HeLa), 5.48 to 6.48; in experiment [4] (72 h, HUT cells), > 6.48.
As to `N[C@@H](CC1CCC(Oc2ccc(CNCc3ccc4cc(C(=O)NO)sc4c3)cc2)CC1)C(=O)OC1CCCC1` (stereo partly drawn) [Example 28, 2-(S)-Amino-3-[4-(4-{[(2-hydroxycarbamoyl-benzo[b]thiophen-6-ylmethyl)-amino]-methyl}-phenoxy)-cyclohexyl]-propionic acid cyclopentyl ester], the pIC50 in experiment [1] was > 7.00; in experiment [2] (Homo sapiens, U-937, 72 h), > 6.48; in experiment [3] (Homo sapiens, HeLa) it was 5.48 to 6.48; in experiment [4] (72 h, HUT cells) it was > 6.48.
For the compound `NC(C(=O)OC1CCCC1)C1CCC(Oc2ccc(CNCc3ccc4cc(C(=O)NO)sc4c3)cc2)CC1` (centres unmarked) [Example 30, Amino-[4-(4-{[(2-hydroxycarbamoyl-benzo[b]thiophen-6-ylmethyl)-amino]-methyl}-phenoxy)-cyclohexyl]-acetic acid cyclopentyl ester], the pIC50 is > 7.00 in experiment [1]; > 6.48 in experiment [2] (Homo sapiens, U-937, 72 h); 5.48 to 6.48 in experiment [3] (Homo sapiens, HeLa); > 6.48 in experiment [4] (72 h, HUT cells).
